From publication PMC4317859 (Cancer Science, 2014)

Tests used:
MDA-MB-175VII (breast) = assay: Growth inhibition assay; format: cell-based; settings: Homo sapiens, 72 h, read-out: IC50, growth inhibition of cultured cells
[1] = clinical dose 1200–1250 mg, once daily; cited from earlier work
BT-474 (breast) = assay: Growth inhibition assay; format: cell-based; settings: Homo sapiens, BT-474, 72 h, read-out: IC50, growth inhibition of cultured cells
Calu-3 (lung) = assay: Growth inhibition assay; format: cell-based; settings: Homo sapiens, Calu-3, 72 h, read-out: IC50, growth inhibition of cultured cells
[2] = Pharmacokinetics in nude mice; format: in vivo; settings: from human plasma AUC and pharmacokinetic parameters in nude mice
serum albumin = serum albumin (Homo sapiens, UniProt P02768); settings: cited from earlier work
MRC-5 (lung) = assay: Growth inhibition assay; format: cell-based; settings: Homo sapiens, MRC5, 72 h, read-out: IC50, growth inhibition of cultured cells
SK-BR-3 (breast) = assay: Growth inhibition assay; format: cell-based; settings: Homo sapiens, SK-BR-3, 72 h, read-out: IC50, growth inhibition of cultured cells
MDA-MB-453 (breast) = assay: Growth inhibition assay; format: cell-based; settings: Homo sapiens, MDA-MB-453, 72 h, read-out: IC50, growth inhibition of cultured cells
NCI-N87 cells = assay: Growth inhibition in the presence of human serum protein; format: cell-based; settings: serum albumin or α1-acid glycoprotein vs standard medium
BT-474 cells = assay: Survival model, intracranial implantation; format: in vivo, mice; settings: 200 mg/kg, oral daily
α1-acid glycoprotein = settings: cited from earlier work
HT115 (colon) = assay: Growth inhibition assay; format: cell-based; settings: Homo sapiens, HT115, 72 h, read-out: IC50, growth inhibition of cultured cells
NCI-N87 (stomach) = assay: Growth inhibition assay; format: cell-based; settings: Homo sapiens, NCI-N87, 72 h, read-out: IC50, growth inhibition of cultured cells

Sequence of serum albumin (P02768 25-609): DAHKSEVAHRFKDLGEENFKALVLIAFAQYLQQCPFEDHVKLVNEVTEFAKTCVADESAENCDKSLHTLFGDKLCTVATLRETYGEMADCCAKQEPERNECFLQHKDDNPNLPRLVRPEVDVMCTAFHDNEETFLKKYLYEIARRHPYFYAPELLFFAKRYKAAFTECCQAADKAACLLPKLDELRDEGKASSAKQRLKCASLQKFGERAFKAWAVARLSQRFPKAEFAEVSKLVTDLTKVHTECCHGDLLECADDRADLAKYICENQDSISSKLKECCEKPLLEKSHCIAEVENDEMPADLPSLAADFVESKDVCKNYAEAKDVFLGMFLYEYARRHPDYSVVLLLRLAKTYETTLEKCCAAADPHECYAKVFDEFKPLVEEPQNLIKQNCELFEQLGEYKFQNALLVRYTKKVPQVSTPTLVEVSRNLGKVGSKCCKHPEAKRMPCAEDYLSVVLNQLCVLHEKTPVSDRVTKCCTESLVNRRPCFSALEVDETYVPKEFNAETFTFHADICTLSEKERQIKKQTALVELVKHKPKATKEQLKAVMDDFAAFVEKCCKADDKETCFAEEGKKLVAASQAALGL

CS(=O)(=O)CCNCc1ccc(-c2ccc3ncnc(Nc4ccc(OCc5cccc(F)c5)c(Cl)c4)c3c2)o1 [Lapatinib, N-{3-chloro-4-[(3-fluorobenzyl)oxy]phenyl}-6-[5-({[2-(methylsulfonyl)ethyl]amino}methyl)-2-furyl]-4-quinazolinamine]
IC50 (MDA-MB-175VII (breast)): 70.2 ± 10.2 nM | Human plasma AUC [1]: 14300 to 36200 ng·h/mL | IC50 (BT-474 (breast)): 29.4 ± 2.2 nM | IC50 (Calu-3 (lung)): 510 ± 85.8 nM | Clinically relevant dose in mice (assumed) [2]: approximately 50 mg/kg | Bound to serum albumin (serum albumin): > 99% | IC50 (MRC-5 (lung)): 9140 ± 643 nM | IC50 (SK-BR-3 (breast)): 56.9 ± 5.4 nM | IC50 (MDA-MB-453 (breast)): 170 ± 3 nM | Elevation of IC50 by addition of serum proteins (NCI-N87 cells): 10.6–12.7 fold | Survival (BT-474 cells): not significant | Bound to α1-acid glycoprotein (α1-acid glycoprotein): > 99% | IC50 (HT115 (colon)): 100 ± 1.5 nM | IC50 (NCI-N87 (stomach)): 36.4 ± 5.2 nM
